Reference: patent US7759373B2, “Large conductance calcium-activated K channel opener” (Mitsubishi Tanabe Pharma Corporation, priority 2001, dated 2010)
Where a name gives a salt, the structure may show the parent alone.

Key:
[1] = system: rhythmic bladder contractions induced by substance P; assay: Inhibitory effect on the rhythmic bladder contractions induced by substance P in anesthetized rats; type: in vivo, rat; details: time during which frequency of rhythmic contraction was completely inhibited, 0.25 mg/kg of the compound, substance P infusion
Summary of the method: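 Urethane-anesthetized female Sprague-Dawley rats with rhythmic bladder contractions driven by i.v. substance P (0.33 μg/kg/min). Compound given i.v. in saline/0.5% Tween 80 once contractions stable 15 min; intravesical pressure monitored, duration of 100% inhibition ranked A ≥20, B ≥10, C <10 min.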

[2] = system: isolated rabbit urinary bladder; assay: Relaxation effect on potassium-induced contraction of isolated rabbit urinary bladder; type: cell-based; details: Oryctolagus cuniculus; 50% relaxation concentration; high-K+ (30 mM) pre-contracted rabbit bladder strips; relaxation as percentage of the maximum produced by 0.1 mM papaverine; read-out: EC50 value range
Summary of the method: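 Mucosa-free longitudinal bladder strips from male NZW rabbits, held at 37 °C in Krebs solution gassed with 95% O2/5% CO2, were precontracted with 30 mM K+. Compounds were added cumulatively (10^−8–10^−4 M), with isometric relaxation expressed relative to 0.1 mM papaverine maximum. EC50 was derived and reported as rank ranges.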

| Structure (SMILES) | melting point | 100% inhibition time range [1] | EC50 [2] |
| --- | --- | --- | --- |
| CCOC(=O)Cc1nc(-c2ccc(F)cc2)oc1I [Preparation Example 295] | 120 to 122 °C | B (A≧20>B≧10>C (minute)) | – |
| CS(=O)(=O)Cc1nc(-c2ccc(F)cc2)oc1-c1ccsc1 [Preparation Example 623] | 208 to 210 °C | C (A≧20>B≧10>C (minute)) | 1000 to 3000 nM |
| CCc1nc(-c2ccc(F)cc2)[nH]c1-c1ccccc1 [Preparation example 61] | 169 to 170 °C | A (A≧20>B≧10>C (minute)) | 1000 to 3000 nM |
| CCCc1nc(-c2ccc(Cl)cc2)[nH]c1-c1ccccc1 [Preparation example 60] | 147 to 149 °C | – | 1000 to 3000 nM |
| COC(=O)c1nc(-c2ccc(F)cc2)oc1-c1ccsc1 [Preparation Example 622] | 213 to 214 °C | B (A≧20>B≧10>C (minute)) | – |
| C[S+]([O-])Cc1nc(-c2ccc(F)cc2)oc1-c1ccsc1 (centres unmarked) [Preparation Example 624] | 173 to 174.5 °C | C (A≧20>B≧10>C (minute)) | – |
| CCCc1nc(-c2ccc(F)cc2)[nH]c1-c1ccc(C#N)cc1 [Preparation example 95] | 240 to 242 °C | – | 1000 to 3000 nM |
| CSCc1nc(-c2ccc(F)cc2)[nH]c1-c1cccnc1 [Preparation example 133] | 172 to 174 °C | C (A≧20>B≧10>C (minute)) | – |
| CCc1nc(-c2ccc(Cl)cc2)[nH]c1-c1ccccc1 [Preparation example 59] | 174 to 176 °C | B (A≧20>B≧10>C (minute)) | 1000 to 3000 nM |
| CCOC(=O)c1sccc1-c1nc(CC)c(-c2cccnc2)[nH]1 [Preparation example 10] | 127 to 129 °C | – | 1000 to 3000 nM |
| CCONC(=O)Cc1nc(-c2ccc(F)cc2)oc1-c1ccsc1 [Preparation Example 377] | 183 to 184 °C | C (A≧20>B≧10>C (minute)) | 1000 to 3000 nM |
| CCc1nc(-c2ccc(Cl)s2)oc1-c1cccnc1.Cl [Preparation example 63, 2-(5-chlorothiophen-2-yl)-4-ethyl-5-(3-pyridyl)oxazole hydrochloride] | 201 to 204 °C | C (A≧20>B≧10>C (minute)) | – |
| N#CCCc1nc(-c2ccc(F)cc2)[nH]c1-c1ccccc1 [Preparation example 62] | 176 to 178 °C | C (A≧20>B≧10>C (minute)) | – |
| CCOC(=O)Cc1nc(-c2cccc(C)c2)oc1-c1cccs1 [Preparation Example 427] | 80 to 81 °C | – | – |
| CSCc1nc(-c2ccc(C#N)cc2)[nH]c1-c1cccnc1 [Preparation example 134] | 209 to 211 °C | – | – |
| CCc1nc(-c2csc(Br)c2)[nH]c1-c1cccnc1 (as salt: HCl) [Preparation example 19] | 214 to 216 °C | – | – |

| Structure (SMILES) | melting point | 100% inhibition time range [1] | EC50 [2] |
| --- | --- | --- | --- |
| CSCc1nc(-c2cccc(F)c2)[nH]c1-c1ccccc1 (as salt: HCl) [Preparation example 131] | 218 to 220 °C | – | – |
| CCOC(=O)Cc1nc(-c2ccc(OC)c(F)c2)oc1-c1cccs1 [Preparation Example 382] | 117 to 117.5 °C | – | – |
| CCCc1nc(-c2ccc(F)cc2)[nH]c1-c1cccc(F)c1 (as salt: HCl) [Preparation example 99] | 228 to 230 °C | – | – |
| Cl.O=C(O)Cc1nc(-c2ccc(Cl)s2)oc1-c1cccnc1 | 234 to 238 °C (dec.) | – | – |
| CCc1nc(-c2ccc(F)cc2)[nH]c1-c1cscn1 (as salt: HCl) [Preparation example 52] | 267 to 269 °C | – | – |
| CCCc1nc(-c2ccc(F)cc2)[nH]c1-c1cc(Cl)ccc1O (as salt: HCl) [Preparation example 92] | 262 to 264 °C | – | – |
| COCc1[nH]c(-c2ccc(Cl)s2)nc1-c1cccnc1.Cl.Cl [Preparation example 120, 2-(5-chlorothiophen-2-yl)-5-methoxymethyl-4-(3-pyridyl) imidazole dihydrochloride] | 245 to 248 °C (dec.) | C (A≧20>B≧10>C (minute)) | ≤ 500 nM |
| CCOC(=O)Cc1nc(-c2ccc(COC(C)=O)cc2)oc1-c1ccc(Cl)s1 [Preparation Example 426] | 112 to 113 °C | – | – |
| CCCc1nc(-c2ccc(NC)cc2)[nH]c1-c1cccs1 (as salt: HCl) [Preparation example 3] | 175 to 180 °C | – | – |
| CNc1[nH]c(-c2ccc(F)cc2)nc1-c1ccccc1 (as salt: hydrochloride) [Preparation example 107, 5-methylamino-2-(4-fluorophenyl)-4-phenylimidazole] | 253 to 255 °C | – | – |
| OCc1nc(-c2cccc(F)c2)[nH]c1-c1ccccc1 [Preparation example 115] | 232 to 234 °C | – | – |
| CCCc1nc(-c2ccccc2[N+](=O)[O-])[nH]c1-c1ccccc1 (as salt: HCl) [Preparation example 39] | 233 to 236 °C | – | – |
| CCCc1nc(-c2ccc(F)cc2)[nH]c1-c1ccc(F)cc1 (as salt: HCl) [Preparation example 87] | 233 to 235 °C | – | – |
| CCCc1nc(-c2ccc(F)cc2)[nH]c1Br (as salt: HCl) [Preparation example 79] | 178 to 180 °C | – | – |
| CCOC(=O)Cc1nc(-c2ccc(F)cc2)oc1-c1ccccc1F [Preparation Example 161] | 88 to 89 °C | – | – |
